Assay results published in patent publication US8993786B2, “Crystalline fosamprenavir calcium and process for the preparation thereof” (Mylan Laboratories Ltd., priority 2011, dated 2015).

What was measured:
HIV aspartyl protease = conditions: cited from earlier work
[1] = cited from earlier work
[2] = Physical stability under drying (vacuum) and 90% RH, PXRD
Experimental: The said formic acid solvate of the present invention is characterized by their X-ray powder diffraction pattern. Thus, the X-ray diffraction patterns of said polymorphs of the invention were measured on Bruker AXS D8 Discover powder X-ray diffractometer equipped with a goniometer of θ/2θ configuration, Variol monochromator and Lynx-Eye detector. The Cu-anode X-ray tube was operated at 40 kV and 30 mA. The experiments were conducted over the 2θ range of 2.0°-50.0°, 0.030° step size and 25 seconds step time.
In yet another embodiment, the physical stability of Fosamprenavir calcium Form A was determined by storing 1.0 g of sample at 50° C. and 80° C. under vacuum and at 90% relative humidity (RH). The samples are tested by PXRD after 15 hours and 72 hours. […] Transformation kinetics of Form A was studied by suspending 1 g of Form A in appropriate solvents at 25-30° C. for 15 hours. The solid samples were characterized by PXRD.

[3] = Storage stability of Form A: polymorph by PXRD; format: physicochemical
[4] = Storage stability of Form A: HPLC purity
Experimental: In yet another embodiment, physical and chemical stability of Fosamprenavir calcium Form A was determined by storing the samples at 40° C./75% relative humidity (RH), at 25° C./60% RH and at 5° C. for 6 months. The material was analyzed by PXRD, water content by Karl Fischer and HPLC for final purity.

[5] = Transformation kinetics: slurry in solvents, PXRD; format: physicochemical; conditions: 25-30° C., 15 h
Description: The solid samples were characterized by PXRD.

[6] = Storage stability of Form A: water content by Karl Fischer; format: physicochemical
Experimental: Water content was determined on Metrohm karl-Fischer titrator (Model: 794 Basic Titrino) using pyridine free single solution (Merck, Mumbai) with sample mass between 450-550 mg.

[7] = stored for 6 months at the stress conditions of table 1

Compound: CC(C)CN(C[C@@H](OP(=O)([O-])[O-])[C@H](Cc1ccccc1)NC(=O)O[C@H]1CCOC1)S(=O)(=O)c1ccc(N)cc1.[Ca+2] [Fosamprenavir Calcium, Calcium (3S) tetrahydro-3-furanyl (1S,2R)-3-[[(4-aminophenyl)sulfonyl](isobutyl)amino]-1-benzyl-2-(phosphonooxy)propylcarbamate]
- HIV aspartyl protease inhibitory activity (HIV aspartyl protease): has HIV aspartyl protease inhibitory activity
- Solubility compared to amprenavir ([1]; pH range of the gastro-intestinal tract): increased solubility

Compound: CC(C)CN(C[C@@H](O)[C@H](Cc1ccccc1)NC(=O)O[C@H]1CCOC1)S(=O)(=O)c1ccc(N)cc1 (relative stereo) [Amprenavir, [3S-[3R*(1R*,2S*)]]-[3-[[(4-aminophenyl)sulfonyl](2-methyl-propyl)amino]-2-hydroxy-1-phenylmethyl)propyl]-tetrahydro-3-furanyl ester]
- Solubility [1]: poor solubility

Compound: CC(C)CN(C[C@@H](OP(=O)([O-])[O-])[C@H](Cc1ccccc1)NC(=O)O[C@H]1CCOC1)S(=O)(=O)c1ccc(N)cc1.[Ca+2] [Fosamprenavir calcium Form A, Calcium (3S) tetrahydro-3-furanyl (1S,2R)-3-[[(4-aminophenyl)sulfonyl](isobutyl)amino]-1-benzyl-2-(phosphonooxy)propylcarbamate]
- Change in polymorph ([2]; 50° C. and 80° C. under vacuum and 90% RH, after 15 hours and 72 hours): no change in polymorph
- Result (polymorph by PXRD) ([2]; 90% RH, 15 h): Form A
- Result (polymorph by PXRD) ([2]; 90% RH, 72 h): Form A
- Result (polymorph by PXRD) ([2]; Drying at 50° C. under vacuum, 15 h): Form A
- Result (polymorph by PXRD) ([2]; Drying at 50° C. under vacuum, 72 h): Form A
- Result (polymorph by PXRD) ([2]; Drying at 80° C. under vacuum, 15 h): Form A
- Result (polymorph by PXRD) ([2]; Drying at 80° C. under vacuum, 72 h): Form A
- Physical stability ([2]; different stress conditions (Table 2)): physically stable
- PXRD ([3]; at 5° C., 1st Month): Form A
- PXRD ([3]; at 5° C., 2nd Month): Form A
- PXRD ([3]; at 5° C., 3rd Month): Form A
- PXRD ([3]; at 5° C., 6th Month): Form A
- PXRD ([3]; at 5° C., 15 days): Form A
- PXRD ([3]; at 5° C., Initial): Form A
- PXRD ([3]; at 25° C./60% RH, 1st Month): Form A
- PXRD ([3]; at 25° C./60% RH, 2nd Month): Form A
- PXRD ([3]; at 25° C./60% RH, 3rd Month): Form A
- PXRD ([3]; at 25° C./60% RH, 6th Month): Form A
- PXRD ([3]; at 25° C./60% RH, 15 days): Form A
- PXRD ([3]; at 25° C./60% RH, Initial): Form A
- PXRD ([3]; at 40° C./75% RH, 1st Month): Form A
- PXRD ([3]; at 40° C./75% RH, 2nd Month): Form A
- PXRD ([3]; at 40° C./75% RH, 3rd Month): Form A
- PXRD ([3]; at 40° C./75% RH, 6th Month): Form A
- PXRD ([3]; at 40° C./75% RH, 15 days): Form A
- PXRD ([3]; at 40° C./75% RH, Initial): Form A
- Change in PXRD pattern on storage [3, 7]: no change in PXRD pattern
- HPLC purity (%) ([4]; at 5° C., 1st Month): 99.85%
- HPLC purity (%) ([4]; at 5° C., 2nd Month): 99.86%
- HPLC purity (%) ([4]; at 5° C., 3rd Month): 99.86%
- HPLC purity (%) ([4]; at 5° C., 6th Month): 99.86%
- HPLC purity (%) ([4]; at 5° C., 15 days): 99.85%
- HPLC purity (%) ([4]; at 5° C., Initial): 99.85%
- HPLC purity (%) ([4]; at 25° C./60% RH, 1st Month): 99.85%
- HPLC purity (%) ([4]; at 25° C./60% RH, 2nd Month): 99.86%
- HPLC purity (%) ([4]; at 25° C./60% RH, 3rd Month): 99.87%
- HPLC purity (%) ([4]; at 25° C./60% RH, 6th Month): 99.85%
- HPLC purity (%) ([4]; at 25° C./60% RH, 15 days): 99.85%
- HPLC purity (%) ([4]; at 25° C./60% RH, Initial): 99.85%
- HPLC purity (%) ([4]; at 40° C./75% RH, 1st Month): 99.85%
- HPLC purity (%) ([4]; at 40° C./75% RH, 2nd Month): 99.85%
- HPLC purity (%) ([4]; at 40° C./75% RH, 3rd Month): 99.86%
- HPLC purity (%) ([4]; at 40° C./75% RH, 6th Month): 99.86%
- HPLC purity (%) ([4]; at 40° C./75% RH, 15 days): 99.84%
- HPLC purity (%) ([4]; at 40° C./75% RH, Initial): 99.85%
- Degradation on storage [4, 7]: no significant degradation
- Result (polymorph by PXRD) ([5]; Slurry in IPE): Form A
- Result (polymorph by PXRD) ([5]; Slurry in acetone): Form A
- Result (polymorph by PXRD) ([5]; Slurry in ethyl acetate): Form A
- Result (polymorph by PXRD) ([5]; Slurry in n-Heptane): Form A
- Water content (% w/w) ([6]; at 5° C., 1st Month): 3.5 % w/w
- Water content (% w/w) ([6]; at 5° C., 2nd Month): 4.4 % w/w
- Water content (% w/w) ([6]; at 5° C., 3rd Month): 4.0 % w/w
- Water content (% w/w) ([6]; at 5° C., 6th Month): 3.5 % w/w
- Water content (% w/w) ([6]; at 5° C., 15 days): 3.6 % w/w
- Water content (% w/w) ([6]; at 5° C., Initial): 4.2 % w/w
- Water content (% w/w) ([6]; at 25° C./60% RH, 1st Month): 3.6 % w/w
- Water content (% w/w) ([6]; at 25° C./60% RH, 2nd Month): 3.7 % w/w
- Water content (% w/w) ([6]; at 25° C./60% RH, 3rd Month): 3.9 % w/w
- Water content (% w/w) ([6]; at 25° C./60% RH, 6th Month): 3.5 % w/w
- Water content (% w/w) ([6]; at 25° C./60% RH, 15 days): 3.7 % w/w
- Water content (% w/w) ([6]; at 25° C./60% RH, Initial): 4.2 % w/w
- Water content (% w/w) ([6]; at 40° C./75% RH, 1st Month): 3.5 % w/w
- Water content (% w/w) ([6]; at 40° C./75% RH, 2nd Month): 3.9 % w/w
- Water content (% w/w) ([6]; at 40° C./75% RH, 3rd Month): 3.8 % w/w
- Water content (% w/w) ([6]; at 40° C./75% RH, 6th Month): 3.0 % w/w
- Water content (% w/w) ([6]; at 40° C./75% RH, 15 days): 3.5 % w/w
- Water content (% w/w) ([6]; at 40° C./75% RH, Initial): 4.2 % w/w
- Change in moisture content on storage [6, 7]: no substantial increase in moisture content
